Source: ChEMBL document CHEMBL1125260, “Binding of substituted and conformationally restricted derivatives of N-(3-phenyl-n-propyl)-1-phenyl-2-aminopropane at sigma-receptors” (J Med Chem, 1991)

Columns and labels:
[1] = biological target: T1, Adrenergic receptor beta (Rattus norvegicus, UniProt P18090+P10608+P26255); experiment: In vitro binding affinity at Beta adrenergic receptor in rat brain membrane using [3H]dihydroalprenolol as radioligand; format: cell membranes
[2] = biological target: Muscarinic acetylcholine receptor; experiment: In vitro binding affinity at Muscarinic acetylcholine receptor in rat brain membrane using [3H]QNB as radioligand; format: cell membranes
[3] = biological target: Glutamate receptor ionotropic, kainate; experiment: In vitro binding affinity at Ionotropic glutamate receptor kainate in rat brain membrane using [3H]kainate as radioligand; format: cell membranes
[4] = biological target: D(1A) dopamine receptor (Rattus norvegicus, UniProt P18901); experiment: In vitro binding affinity at Dopamine receptor D1 using [3H]SCH-23390 as radioligand
[5] = biological target: D(2) dopamine receptor (Rattus norvegicus, UniProt P61169); experiment: In vitro binding affinity at Dopamine receptor D2 in rat striata using [3H]domperidone as radioligand
[6] = biological target: T2, Glutamate receptor ionotropic, AMPA (Rattus norvegicus, UniProt P19490+P19491+P19492+P19493); experiment: In vitro binding affinity at quisqualate binding site of quisqualate/AMPA glutamate receptors in rat brain membrane using [3H]- ]AMPA as radioligand; format: cell membranes
[7] = biological target: Glutamate receptor ionotropic, kainate; experiment: In vitro binding affinity at Ionotropic glutamate receptor ionotropic kainate in rat brain membrane using [3H]kainate as radioligand; format: cell membranes
[8] = biological target: Muscarinic acetylcholine receptor; experiment: In vitro binding affinity at muscarinic binding site receptors in rat brain membrane using [3H]QNB as radioligand; format: cell membranes
[9] = biological target: T1, Adrenergic receptor beta; experiment: In vitro binding affinity at beta adrenergic receptor binding site receptors in rat brain membrane using [3H]dihydroalprenolol as radioligand; format: cell membranes
[10] = biological target: T2, Glutamate receptor ionotropic, AMPA; experiment: In vitro binding affinity at quisqualate binding site of quisqualate/AMPA glutamate receptors in rat brain membrane using [3H]AMPA as radioligand; format: cell membranes

Chain of D(2) dopamine receptor (P61169 whole entry): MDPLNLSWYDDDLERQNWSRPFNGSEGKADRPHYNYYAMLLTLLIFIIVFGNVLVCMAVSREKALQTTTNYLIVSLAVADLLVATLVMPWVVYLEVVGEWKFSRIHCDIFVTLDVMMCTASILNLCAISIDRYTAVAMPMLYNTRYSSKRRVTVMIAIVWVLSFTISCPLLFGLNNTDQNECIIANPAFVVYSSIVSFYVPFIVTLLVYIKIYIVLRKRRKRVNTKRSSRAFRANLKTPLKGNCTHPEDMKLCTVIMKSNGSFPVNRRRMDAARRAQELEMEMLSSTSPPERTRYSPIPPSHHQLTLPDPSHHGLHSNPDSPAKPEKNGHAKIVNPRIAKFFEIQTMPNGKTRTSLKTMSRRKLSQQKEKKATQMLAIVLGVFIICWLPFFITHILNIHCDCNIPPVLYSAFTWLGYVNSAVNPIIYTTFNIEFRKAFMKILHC
Chain of D(1A) dopamine receptor (P18901 whole entry): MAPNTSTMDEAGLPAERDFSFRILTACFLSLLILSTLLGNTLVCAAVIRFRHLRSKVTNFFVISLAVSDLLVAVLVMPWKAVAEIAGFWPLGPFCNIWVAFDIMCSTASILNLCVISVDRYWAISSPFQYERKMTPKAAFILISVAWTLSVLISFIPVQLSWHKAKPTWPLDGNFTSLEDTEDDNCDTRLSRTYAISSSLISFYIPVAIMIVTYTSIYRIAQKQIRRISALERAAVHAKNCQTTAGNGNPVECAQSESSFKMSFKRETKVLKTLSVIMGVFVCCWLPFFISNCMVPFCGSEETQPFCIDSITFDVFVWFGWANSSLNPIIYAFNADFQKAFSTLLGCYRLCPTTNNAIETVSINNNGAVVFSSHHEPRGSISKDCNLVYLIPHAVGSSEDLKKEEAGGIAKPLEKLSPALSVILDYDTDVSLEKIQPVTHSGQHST

## CC(Cc1ccc(Cl)c(Cl)c1)NCCCc1ccccc1 (centres undefined)
[1]
  IC50: 1.24 µM
[2]
  IC50: 7.4 µM
[3]
  IC50: > 10 µM
[4]
  IC50: > 10 µM
[5]
  IC50: 1.79 µM
[6]
  IC50: > 10 µM

## CC(Cc1ccc(I)cc1)NCCCc1ccccc1 (centres undefined)
[7]
  IC50: > 10 µM
[8]
  IC50: > 10 µM
[4]
  IC50: > 10 µM
[9]
  IC50: 5.57 µM
[5]
  IC50: 3.8 µM
[6]
  IC50: > 10 µM

## c1ccc(CCCNC2CCc3ccccc3CC2)cc1
[1]
  IC50: > 10 µM
[2]
  IC50: 9.5 µM
[3]
  IC50: > 10 µM
[4]
  IC50: > 10 µM
[5]
  IC50: 5.8 µM
[6]
  IC50: > 10 µM

## COc1ccc(CC(C)NCCCc2ccccc2)cc1 (centres undefined)
[10]
  IC50: > 10 µM
[7]
  IC50: > 10 µM
[8]
  IC50: > 10 µM
[4]
  IC50: > 10 µM
[9]
  IC50: 4.94 µM
[5]
  IC50: 9.32 µM
